Assay results as given in patent publication EP2676962A1, “Derivatives of 1-aminoalkylphosphonate diaryl esters, method of 1-aminoalkylphosphonate diaryl ester derivatives preparation and their application” (priority 2012, dated 2013).
Like-named read-outs stand apart in the source and are kept apart here.

Assays:
Type in all cases: biochemical
[1] = molecular target: T1, human neutrophil elastase (HNE) (Homo sapiens, UniProt P08246); assay: Inhibitory activity toward human neutrophil elastase, fluorogenic substrate, microplate reader
T1 sequence (P08246 30-267): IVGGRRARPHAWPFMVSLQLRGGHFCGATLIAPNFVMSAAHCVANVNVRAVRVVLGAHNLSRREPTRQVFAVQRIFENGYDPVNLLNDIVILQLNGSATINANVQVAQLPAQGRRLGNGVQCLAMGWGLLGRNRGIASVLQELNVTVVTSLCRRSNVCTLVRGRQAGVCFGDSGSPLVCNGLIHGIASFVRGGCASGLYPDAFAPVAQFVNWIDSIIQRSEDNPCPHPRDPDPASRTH
Description: (§1) The biological activity of peptidyl derivatives of phosphonic analogs of valine, alanine, phenylalanine, 4-guanidinephenylglycine, leucine, and 1-aminobutyric acid, containing the N-terminal biotin residue were tested for their ability to inhibit proteolytic activity of selected serine proteases, and the control cysteine proteases. All tests were performed using a microplate reader. As enzyme substrates fluorescent peptides were used. The method to measure the activity of the compounds obtained are described below for each of the enzymes tested: human neutrophil elastase (HNE), porcine pancreatic elastase (PPE), subtilisin (Sub), cathepsin G (CatG), proteinase 3 (PR3), chymotrypsin (ChTry) trypsin (Try), papain (Pap) and cathepsin L (CatL). Measurement of the inhibitory activity was performed at different inhibitor concentrations ranging from 12.5 nM to 2000nm.
Measurement of inhibitory activity of compounds toward human neutrophil elastase (HNE).
(§2) The inhibitory activity assay is performed at 37°C in 0,01M HEPES, 0,5M NaCl, 0,03% Triton X-100 buffer, pH 7,5, within 10 min after initial pre-incubation of the enzyme with inhibitor tested at 37°C for 10 min. The enzyme concentration is 0,0025U/ml. Substrate used Me-Suc-Ala-Ala-Pro-Val-AFC at 25µM. Measurement is taken at an excitation wavelength of 400nm and 505nm emission.
(§3) The IC50 value is the concentration of inhibitor required to inhibit half of the enzyme activity after 10 minutes incubation.

[2] = molecular target: porcine pancreatic elastase (PPE) (Sus scrofa, UniProt P00772); assay: Inhibitory activity toward porcine pancreatic elastase, fluorogenic substrate, microplate reader
Description: as §1
Measurement of inhibitory activity of compounds toward porcine pancreatic elastase (PPE).
(§4) The inhibitory activity assay is performed at 37°C in 0,01M Tris-HCl, 0,05% Triton X-100 buffer, pH 8,5, within 10 min after initial pre-incubation of the enzyme with inhibitor tested at 37°C for 10 min. The enzyme concentration is 60nM. Substrate used Me-Suc-Ala-Ala-Pro-Val-AMC at 100µM. Measurement is taken at an excitation wavelength of 350nm and 460nm emission.
as §3

proteinase 3 (PR3) = molecular target: T2, proteinase 3 (PR3) (Homo sapiens, UniProt P24158); assay: Inhibitory activity toward proteinase 3, fluorogenic substrate, microplate reader
T2 sequence (P24158 28-248): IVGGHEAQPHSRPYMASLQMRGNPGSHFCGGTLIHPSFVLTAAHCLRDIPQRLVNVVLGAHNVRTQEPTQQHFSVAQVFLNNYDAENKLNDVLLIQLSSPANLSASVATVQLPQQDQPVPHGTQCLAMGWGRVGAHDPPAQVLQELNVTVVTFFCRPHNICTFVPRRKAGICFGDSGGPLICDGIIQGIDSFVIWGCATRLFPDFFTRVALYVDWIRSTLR
Description: as §1
Measurement of inhibitory activity of compounds toward proteinase 3(PR3).
(§5) The inhibitory activity assay is performed at 37°C in 0,1M Tric-HCl, 0,5M NaCl buffer, pH 7,5, within 10 min after initial pre-incubation of the enzyme with inhibitor tested at 37°C for 10 min. The enzyme concentration is 17nM. Substrate used Abz-Tyr-Tyr-Abu-Anb-NH2 at 30µM. Measurement is taken at an excitation wavelength of 325nm and 400nm emission.
as §3

cathepsin G (CatG) = molecular target: T3, cathepsin G (CatG) (Homo sapiens, UniProt P08311); assay: Inhibitory activity toward cathepsin G, fluorogenic substrate, microplate reader; settings: for Cat G Kobs/[I]: 10 min pre-incubation at 37°C, pH 7,5, MCA-Phe-Val-Thr-Gnf-Ser-Trp-Anb-NH2 2.5µM, NI = brak inhibicji (no inhibition)
T3 sequence (P08311 21-244): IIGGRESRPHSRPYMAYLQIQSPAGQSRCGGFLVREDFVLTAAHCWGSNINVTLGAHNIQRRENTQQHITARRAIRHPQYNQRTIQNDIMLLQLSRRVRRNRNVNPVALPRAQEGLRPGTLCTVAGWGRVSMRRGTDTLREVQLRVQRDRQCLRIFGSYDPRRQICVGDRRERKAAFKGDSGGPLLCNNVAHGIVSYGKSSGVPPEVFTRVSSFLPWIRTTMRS
Description: as §1
Measurement of inhibitory activity of compounds toward cathepsin G (CatG).
as §5, with “100nM.” for “17nM.”, “MCA-Phe-Val-Thr-Gnf-Ser-Trp-Anb-NH2” for “Abz-Tyr-Tyr-Abu-Anb-NH2”, “2.5µM.” for “30µM.”
as §3

chymotrypsin (ChTry) = chymotrypsin (ChTry) (Bos taurus, UniProt P00766); assay: Inhibitory activity toward chymotrypsin, fluorogenic substrate, microplate reader; settings: 10 min pre-incubation at 37°C, pH 7,5, Suc-Ala-Ala-Pro-Phe-AMC 5µM; NI = brak inhibicji (no inhibition)
Description: as §1
Measurement of inhibitory activity of compounds toward […] (ChyTry).
as §5, with “HEPES,” for “Tric-HCl,”, “3nM.” for “17nM.”, “Suc-Ala-Ala-Pro-Phe-AMC” for “Abz-Tyr-Tyr-Abu-Anb-NH2”, “5µM.” for “30µM.”, “350nm” for “325nm”, “460nm” for “400nm”
as §3

subtilisin (Sub) = subtilisin (Sub) (Bacillus licheniformis, UniProt P00780); assay: Inhibitory activity toward subtilisin, fluorogenic substrate, microplate reader
Description: as §1
Measurement of inhibitory activity of compounds toward subtilisin (Sub).
as §4, with “0,05M” for “0,01M”, “1M NaCl, 0,01%” for “0,05%”, “7,5,” for “8,5,”, “5nM.” for “60nM.”, “Me-Suc-Ala-Ala-Pro-Phe-AMC” for “Me-Suc-Ala-Ala-Pro-Val-AMC”, “5µM.” for “100µM.”
as §3

trypsin (Try) = molecular target: T4, trypsin (Try) (Bos taurus, UniProt P00760); assay: Inhibitory activity toward trypsin, fluorogenic substrate, microplate reader; settings: 10 min pre-incubation at 37°C, pH 7,5, Cbz-Arg-AFC 100µM; NI = brak inhibicji (no inhibition)
T4 sequence (P00760 24-246): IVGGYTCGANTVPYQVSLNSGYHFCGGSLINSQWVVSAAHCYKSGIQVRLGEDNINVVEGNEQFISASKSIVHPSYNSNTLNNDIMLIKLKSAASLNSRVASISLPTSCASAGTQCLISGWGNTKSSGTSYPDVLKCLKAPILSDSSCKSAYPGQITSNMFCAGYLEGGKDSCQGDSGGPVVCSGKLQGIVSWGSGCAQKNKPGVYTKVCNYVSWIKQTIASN
Description: as §1
Measurement of inhibitory activity of compounds toward trypsin (Try).
as §2, with “0,1M” for “0,01M”, “25nM.” for “0,0025U/ml.”, “Cbz-Arg-AFC” for “Me-Suc-Ala-Ala-Pro-Val-AFC”, “100µM.” for “25µM.”
as §3

[3] = 10 min pre-incubation at 37°C, pH 7,5, Me-Suc-Ala-Ala-Pro-Val-AFC 25µM, NI = brak inhibicji (no inhibition)
[4] = read-out: PPE IC50, 10 min pre-incubation at 37°C, pH 8,5, Me-Suc-Ala-Ala-Pro-Val-AMC 100µM, NI = brak inhibicji (no inhibition)
[5] = read-out: PR3 IC50, 10 min pre-incubation at 37°C, pH 7,5, Abz-Tyr-Tyr-Abu-Anb-NH2 30µM, NI = brak inhibicji (no inhibition)
[6] = 10 min pre-incubation at 37°C, pH 7,5, Me-Suc-Ala-Ala-Pro-Phe-AMC 5µM, NI = brak inhibicji (no inhibition)
[7] = 10 min pre-incubation at 37°C, pH 8,5, Me-Suc-Ala-Ala-Pro-Val-AMC 100µM, NI = brak inhibicji (no inhibition)
[8] = 10 min pre-incubation at 37°C, pH 7,5, Abz-Tyr-Tyr-Abu-Anb-NH2 30µM, NI = brak inhibicji (no inhibition)

Sequence of subtilisin (Sub) (P00780 106-379): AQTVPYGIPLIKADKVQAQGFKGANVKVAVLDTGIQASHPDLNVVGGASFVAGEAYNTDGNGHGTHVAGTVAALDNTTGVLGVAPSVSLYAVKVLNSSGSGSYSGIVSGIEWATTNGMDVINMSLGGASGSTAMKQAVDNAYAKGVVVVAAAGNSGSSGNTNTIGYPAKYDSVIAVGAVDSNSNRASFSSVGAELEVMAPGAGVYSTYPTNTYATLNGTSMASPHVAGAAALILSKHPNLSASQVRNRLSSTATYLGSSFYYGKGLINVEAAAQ
Sequence of porcine pancreatic elastase (PPE) (P00772 27-266): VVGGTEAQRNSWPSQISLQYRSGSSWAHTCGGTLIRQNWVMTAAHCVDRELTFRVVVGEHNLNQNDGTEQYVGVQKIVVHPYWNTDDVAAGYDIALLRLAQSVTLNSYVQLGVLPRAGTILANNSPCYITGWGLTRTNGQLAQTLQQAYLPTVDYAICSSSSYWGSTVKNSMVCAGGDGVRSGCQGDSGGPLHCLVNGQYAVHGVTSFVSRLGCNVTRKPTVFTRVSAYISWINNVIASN

CSc1ccc(OP(=O)(Oc2ccc(SC)cc2)C(Cc2ccccc2)NC(=O)C2CCCN2C(=O)C(NC(=O)CCCCC2SCC3NC(=O)NC32)C(C)C)cc1 (stereo not shown) [Compound 6, bis(4-(methylthio)phenyl) (1-(1-(3-methyl-2-(5-(2-oxohexahydro-1H-thieno[3,4-d]imidazol-4-yl)pentanamido)butanoyl)pyrrolidine-2-carboxamido)-2-phenylethyl)phosphonate]
IC50 [1]: 1.55 ± 0.05 nM | HNE Kobs/[I] [1, 3]: 2.5*10^5 M^-1S^-1 | IC50 [2, 4]: > 5000 nM | IC50 (proteinase 3 (PR3); [5]): > 5000 nM | IC50 (cathepsin G (CatG)): 218 ± 45 nM | Cat G Kobs/[I] (cathepsin G (CatG)): 5.3*10^3 M^-1S^-1 | ChyTr Kobs/[I] (chymotrypsin (ChTry)): 1.0*10^5 M^-1S^-1 | IC50 (subtilisin (Sub)): 5.6 ± 0.8 nM | Try Kobs/[I] (trypsin (Try)): 3.7*10^2 M^-1S^-1

CSc1ccc(OP(=O)(Oc2ccc(SC)cc2)C(CC(C)C)NC(=O)C2CCCN2C(=O)CCCCC2SCC3NC(=O)NC32)cc1 (stereo not shown) [Compound 8, bis(4-(methylthio)phenyl) (3-methyl-1-(1-(5-(2-oxohexahydro-1H-thieno[3,4-d]imidazol-4-yl)pentanoyl)pyrrolidine-2-carboxamido)butyl)phosphonate]
IC50 [1]: 3800 ± 250 nM | HNE Kobs/[I] [1, 3]: 3.0*10^2 M^-1S^-1 | IC50 [2, 4]: > 5000 nM | IC50 (proteinase 3 (PR3); [5]): > 5000 nM | IC50 (cathepsin G (CatG)): 1100 ± 139 nM | Cat G Kobs/[I] (cathepsin G (CatG)): 1.0*10^3 M^-1S^-1 | ChyTr Kobs/[I] (chymotrypsin (ChTry)): 2.9*10^3 M^-1S^-1 | IC50 (subtilisin (Sub)): 11.7 ± 0.61 nM | Sub Kobs/[I] (subtilisin (Sub); [6]): 9.9*10^4 M^-1S^-1 | Try Kobs/[I] (trypsin (Try)): 1*10^3 M^-1S^-1

COC(=O)c1ccc(OP(=O)(Oc2ccc(C(=O)OC)cc2)C(CC(C)C)NC(=O)C2CCCN2C(=O)C(NC(=O)CCCCC2SCC3NC(=O)NC32)C(C)C)cc1 (stereo not shown) [Compound 9, dimethyl 4,4'-(((3-methyl-1-(1-(3-methyl-2-(5-(2-oxohexahydro-1H-thieno[3,4-d]imidazol-4-yl)pentanamido)butanoyl)pyrrolidine-2-carboxamido)butyl)phosphoryl)bis(oxy))dibenzoate]
IC50 [1]: 5.61 ± 0.02 nM | IC50 [2]: > 5000 nM | PPE Kobs/[I] [2, 7]: <200 M^-1S^-1 | IC50 (proteinase 3 (PR3)): 59.5 ± 8 nM | PR3 Kobs/[I] (proteinase 3 (PR3); [8]): 3.9*10^4 M^-1S^-1 | IC50 (cathepsin G (CatG)): 720 ± 60 nM | Cat G Kobs/[I] (cathepsin G (CatG)): 1.6*10^3 M^-1S^-1 | ChyTr Kobs/[I] (chymotrypsin (ChTry)): 5.2*10^4 M^-1S^-1 | IC50 (subtilisin (Sub)): 21.2 ± 1.2 nM | Sub Kobs/[I] (subtilisin (Sub); [6]): 5.4*10^4 M^-1S^-1 | Try Kobs/[I] (trypsin (Try)): 4.4*10^4 M^-1S^-1

CSc1ccc(OP(=O)(Oc2ccc(SC)cc2)C(NC(=O)C(NC(=O)C(NC(=O)C(Cc2ccccc2)NC(=O)CCC(=O)NCCCCCNC(=O)CCCCC2SCC3NC(=O)NC32)C(C)C)C(C)O)c2ccc(NC(=N)N)cc2)cc1 (stereo not shown) [Compound 11, bis(4-(methylthio)phenyl) 10-benzyl-1-(4-guanidinophenyl)-4-(1-hydroxyethyl)-7-isopropyl-3,6,9,12,15,23-hexaoxo-27-(2-oxohexahydro-1H-thieno[3,4-d]imidazol-4-yl)-2,5,8,11,16,22-hexaazaheptacosylphosphonate]
IC50 ([1]; read-out: HNE IC50, 10 min pre-incubation at 37°C, pH 7,5, Me-Suc-Ala-Ala-Pro-Val-AFC 25µM, NI = brak inhibicji (no inhibition)): > 5000 nM | IC50 [2, 4]: > 5000 nM | IC50 (proteinase 3 (PR3)): 603 ± 49 nM | PR3 Kobs/[I] (proteinase 3 (PR3); [8]): 3.8*10^3 M^-1S^-1 | IC50 (cathepsin G (CatG)): 4740 ± 556 nM | Cat G Kobs/[I] (cathepsin G (CatG)): 2.4*10^2 M^-1S^-1 | IC50 (subtilisin (Sub)): 480 ± 15.5 nM | Sub Kobs/[I] (subtilisin (Sub); [6]): 2.4*10^3 M^-1S^-1 | Try Kobs/[I] (trypsin (Try)): 2.7*10^3 M^-1S^-1

CSc1ccc(OP(=O)(Oc2ccc(SC)cc2)C(CC(C)C)NC(=O)C2CCCN2C(=O)C(NC(=O)CCCCC2SCC3NC(=O)NC32)C(C)C)cc1 (stereo not shown) [Compound 12, bis(4-(methylthio)phenyl) (3-methyl-1-(1-(3-methyl-2-(5-(2-oxohexahydro-1H-thieno[3,4-d]imidazol-4-yl)pentanamido)butanoyl)pyrrolidine-2-carboxamido)butyl)phosphonate]
IC50 [1]: 66.5 ± 6.5 nM | HNE Kobs/[I] [1, 3]: 1.7*10^4 M^-1S^-1 | IC50 [2]: 289 ± 10 nM | PPE Kobs/[I] [2, 7]: 4*10^3 M^-1S^-1 | IC50 (proteinase 3 (PR3); [5]): > 5000 nM | IC50 (cathepsin G (CatG)): 436 ± 22 nM | Cat G Kobs/[I] (cathepsin G (CatG)): 2.6*10^3 M^-1S^-1 | ChyTr Kobs/[I] (chymotrypsin (ChTry)): 4.5*10^4 M^-1S^-1 | IC50 (subtilisin (Sub); read-out: Sub IC50, 10 min pre-incubation at 37°C, pH 7,5, Me-Suc-Ala-Ala-Pro-Phe-AMC 5µM, NI = brak inhibicji (no inhibition)): > 5000 nM | Try Kobs/[I] (trypsin (Try)): 1.9*10^3 M^-1S^-1
